In publication PMC2829385 (The Journal of investigative dermatology, 2009):
Several values for one entry are separate records, joined by “and”; a condition that tells them apart may be missing. Equal entries are not always repeated. Entries after “also recorded” stand apart in the source; their conditions may differ. Structures can show the parent of a compound that is named as a salt.

How the values were obtained:
[1] = tested on: primary human keratinocytes; experiment: Western blot of UVB-induced caspase 3 and PARP cleavage in keratinocytes; type: cell-based; conditions: 2 mM caffeine, 75 mJ/cm^2 UVB, 8 h (Figure 1a)
ATM = conditions: read-out: IC50 for ATM; ref Sarkaria et al., 1999; cited from earlier work
cAMP phosphodiesterase = conditions: read-out: IC50 cAMP phosphodiesterase; ref Butcher and Sutherland, 1962; cited from earlier work
[2] = tested on: primary human keratinocytes; experiment: UVB-induced apoptosis, sub-2N DNA content by flow cytometry; type: cell-based
[3] = tested on: ATR-dependent serine 345 residue of Chk1; experiment: Western blot of UVB-induced Chk1 Ser345 phosphorylation in keratinocytes; type: cell-based, human; conditions: 2 mM caffeine, 75 mJ/cm^2 UVB (Figure 2a)
[4] = tested on: UV-induced skin carcinogenesis; conditions: mice, oral caffeine as drinking fluid 0.4 mg/ml; ref Huang et al., 1997; cited from earlier work
[5] = humans drinking 2–5 cups of coffee per day; ref de Leon et al., 2003; cited from earlier work
[6] = tested on: phosphorylation of Chk1 on Ser345; conditions: mice, oral caffeine in drinking water 0.4 mg/ml (2 mM); ref Lu et al., 2008; cited from earlier work

| Compound | effect on UVB-induced cleavage of caspase 3 and PARP [1] | IC50 (ATM) [µM] | IC50 (cAMP phosphodiesterase) [µM] | proportion of cells undergoing apoptosis (sub-2N DNA content) ([2]; 2 mM caffeine 30 min before 75 mJ/cm^2 UVB, 24 h, UVB alone 10% (Figure 1b)) [%] | proportion of cells undergoing apoptosis (sub-2N DNA content) ([2]; 2 mM caffeine alone (scrambled siRNA), 75 mJ/cm^2 UVB, 24 h (Figure 2c)) [%] | proportion of cells undergoing apoptosis (sub-2N DNA content) ([2]; 2 mM caffeine plus ATR siRNA, 75 mJ/cm^2 UVB, 24 h (Figure 2c)) [%] | increase in UVB-induced apoptosis vs UVB alone (relative cell death) ([2]; 2 mM caffeine pretreatment, 75 mJ/cm^2 UVB (Figure 1c)) | effect on UVB-induced Chk1 phosphorylation at serine 345 [3] | effect on UV-induced skin carcinogenesis [4] | plasma concentration of caffeine [5] | effect on UVB-induced phosphorylation of Chk1 on Ser345 in the epidermis [6] | effect on UVB-induced apoptosis ([2]; doses up to 300 μM, 30 min before 75 mJ/cm^2 UVB, 24 h (Figure 1d)) |
| --- | --- | --- | --- | --- | --- | --- | --- | --- | --- | --- | --- | --- |
| Cn1c(=O)c2c(ncn2C)n(C)c1=O [caffeine, Caffeine] | augmented | 200 | 3000 | 24 | 42 | 48 | two- to three-fold increase; also recorded: more than doubled | inhibited | inhibits | 3.2 mg/l and 16 μM | markedly inhibited |  |
| CCCC(=O)Nc1ncnc2c1ncn2[C@@H]1O[C@@H]2COP(=O)(O)O[C@H]2[C@H]1OC(=O)CCC [dibutyryl cAMP, N^6,2′-O-Dibutyryladenosine 3′,5′-cyclic monophosphate sodium salt] |  |  |  |  |  |  |  |  |  |  |  | no effect |
